Source: patent US9150590B2, “Process for the synthesis of rifaximin and a new pseudo-crystalline form of rifaximin obtained thereby” (Friulchem Spa, priority 2011, dated 2015)

Assay: polymorphic stability on drying or wetting (XRPD, Karl Fischer water content)
Type: physicochemical
Settings: water content between 0.5% and 7% (Karl Fisher)
Text: Advantageously, the pseudo-crystalline rifaximin is stable at a water content comprised between 0.5% and 7%. In contrast to the rifaximin of the state of the art, transition from one polymorphic form to another is not observed when the water content varies between 0.5% and 7%. […] Water content is typically assessed according to the Karl Fisher method.
In the processes of the present invention, the absence of salts (methylaminopyridine hydrochloride and ascorbic acid salts) and the final pH of the solution yield a pseudo-crystalline form of rifaximin which is stable at various water contents comprised between 0.5% and 7%. This pseudo-crystalline form is stable upon drying or wetting with water and transition between different polymorphic forms depending on the water content is not observed. The rifaximin obtained by the process of the present invention is polymorphically stable.
Advantageously, the X-ray diffractogramm of the rifaximin according to the present invention is not modified when the water content varies between 0.5% and 7%.
The diffractograms have been carried out by using the SIEMENS D5000 instrument and under the following working conditions: • Radiation used: Kα of Copper (λ=1.5406 Å) • Tension of the generator: KV 35 • Current of the generator: 30 mA • Starting and final angular 2θ value: from 2.0° to 60.0°.

## CO[C@H]1/C=C/O[C@@]2(C)Oc3c(C)c(O)c4c(O)c(c5c(nc6cc(C)ccn65)c4c3C2=O)NC(=O)/C(C)=C\C=C\[C@H](C)[C@H](O)[C@@H](C)[C@@H](O)[C@@H](C)[C@H](OC(C)=O)[C@@H]1C [pseudo-crystalline rifaximin, rifaximin]
  polymorphic stability (transition to another polymorphic form): stable
